Data published in patent US8686150B2 (Sanofi, priority 2011, dated 2014).

biological target: T1, human full-length recombinant PKC βII (Homo sapiens, UniProt P05771); experiment: Determination of PKC βII inhibition (Caliper mobility-shift kinase assay, Fluorescein-RFARKGSLRQKNV peptide substrate); type: biochemical; conditions: example compounds at a final concentration of 1.14 μM (±0.15 μM)
T1 construct: Active human full-length recombinant PKC βII; purchased Invitrogen GmbH, Darmstadt, Germany
T1 sequence (P05771 1-673 isoform P05771-2): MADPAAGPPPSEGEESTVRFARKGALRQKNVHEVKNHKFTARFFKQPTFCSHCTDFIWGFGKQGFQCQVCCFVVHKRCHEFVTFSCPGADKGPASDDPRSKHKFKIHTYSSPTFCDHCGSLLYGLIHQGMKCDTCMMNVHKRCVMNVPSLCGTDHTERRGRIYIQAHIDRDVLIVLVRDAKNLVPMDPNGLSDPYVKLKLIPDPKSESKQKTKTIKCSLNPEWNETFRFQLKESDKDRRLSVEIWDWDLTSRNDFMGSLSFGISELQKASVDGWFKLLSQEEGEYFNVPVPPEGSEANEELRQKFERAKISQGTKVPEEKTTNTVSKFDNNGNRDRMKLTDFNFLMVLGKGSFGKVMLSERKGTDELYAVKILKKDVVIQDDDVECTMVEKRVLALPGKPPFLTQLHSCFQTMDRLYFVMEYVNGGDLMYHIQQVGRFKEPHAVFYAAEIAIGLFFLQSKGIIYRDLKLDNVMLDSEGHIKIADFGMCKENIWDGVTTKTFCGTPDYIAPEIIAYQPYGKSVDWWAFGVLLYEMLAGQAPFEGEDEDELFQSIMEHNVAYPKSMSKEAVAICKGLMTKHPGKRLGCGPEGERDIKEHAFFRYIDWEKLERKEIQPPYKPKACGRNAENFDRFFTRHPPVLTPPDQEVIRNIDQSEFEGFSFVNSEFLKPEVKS
Outline: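 Compounds were tested at 1.14 μM final. Enzyme was activated by PS, DAG and CaCl2 in Hepes pH 7.4 with MgCl2, with substrate 3 μM and ATP 120 μM as pre-mix concentrations. After 60 min at 32 °C and an EDTA stop, Caliper separation gave fractional turnover, which was normalised to no-compound and no-enzyme controls.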

| Compound | inhibition at 1.14 µM [%] |
| --- | --- |
| Cc1n[nH]c2nc(-c3ccc(O)cc3)cc(C(=O)NCCC(C)(C)N)c12 [Example 129, 6-(4-Hydroxy-phenyl)-3-methyl-1H-pyrazolo[3,4-b]pyridine-4-carboxylic acid (3-amino-3-methyl-butyl)-amide] | 69 |
| Cc1n[nH]c2nc(-c3ccc(O)cc3)cc(C(=O)NC[C@H]3CC[C@H](N)CC3)c12 [Example 130, 6-(4-Hydroxy-phenyl)-3-methyl-1H-pyrazolo[3,4-b]pyridine-4-carboxylic acid (trans-4-amino-cyclohexylmethyl)-amide] | 47 |
| Cc1n[nH]c2nc(-c3ccc(O)cc3)cc(C(=O)NC(CCN)c3ccccc3)c12 (stereo not shown) [Example 131, 6-(4-Hydroxy-phenyl)-3-methyl-1H-pyrazolo[3,4-b]pyridine-4-carboxylic acid (3-amino-1-phenyl-propyl)-amide] | 68 |
| Cc1n[nH]c2nc(-c3ccc(O)cc3)cc(C(=O)NC(CN(C)C)c3ccccc3)c12 (stereo not shown) [Example 132, 6-(4-Hydroxy-phenyl)-3-methyl-1H-pyrazolo[3,4-b]pyridine-4-carboxylic acid (2-dimethylamino-1-phenyl-ethyl)-amide] | 72 |
| Cc1n[nH]c2nc(-c3ccc(O)cc3)cc(C(=O)NCC(C)(C)N)c12 [Example 133, 6-(4-Hydroxy-phenyl)-3-methyl-1H-pyrazolo[3,4-b]pyridine-4-carboxylic acid (2-amino-2-methyl-propyl)-amide] | 89 |
| Cc1n[nH]c2nc(-c3ccc(O)cc3)cc(C(=O)NC(C)(C)C(C)(C)N)c12 [Example 134, 6-(4-Hydroxy-phenyl)-3-methyl-1H-pyrazolo[3,4-b]pyridine-4-carboxylic acid (2-amino-1,1,2-trimethyl-propyl)-amide] | 62 |
| Cc1n[nH]c2nc(-c3c(F)cc(O)cc3F)cc(C(=O)N3CCNCC3(C)C)c12 [Example 135, [6-(2,6-Difluoro-4-hydroxy-phenyl)-3-methyl-1H-pyrazolo[3,4-b]pyridin-4-yl]-(2,2-dimethyl-piperazin-1-yl)-methanone] | 96 |
| Cc1cc(O)ccc1-c1cc(C(=O)N2CCNCC2c2cc(F)cc(F)c2)c2c(C)n[nH]c2n1 (stereo not shown) [Example 136, [2-(3,5-Difluoro-phenyl)-piperazin-1-yl]-[6-(4-hydroxy-2-methyl-phenyl)-3-methyl-1H-pyrazolo[3,4-b]pyridin-4-yl]-methanone] | 100 |
| Cc1cc(O)ccc1-c1cc(C(=O)N2CCNCC2c2ccc(Br)cc2)c2c(C)n[nH]c2n1 (stereo not shown) [Example 137, [2-(4-Bromo-phenyl)-piperazin-1-yl]-[6-(4-hydroxy-2-methyl-phenyl)-3-methyl-1H-pyrazolo[3,4-b]pyridin-4-yl]-methanone] | 99 |
| Cc1cc(O)ccc1-c1cc(C(=O)N2CCNCC2c2ccc(F)cc2)c2c(C)n[nH]c2n1 (stereo not shown) [Example 138, [2-(4-Fluoro-phenyl)-piperazin-1-yl]-[6-(4-hydroxy-2-methyl-phenyl)-3-methyl-1H-pyrazolo[3,4-b]pyridin-4-yl]-methanone] | 98 |
| Cc1cc(O)ccc1-c1cc(C(=O)N2CCNCC2c2cccc(F)c2F)c2c(C)n[nH]c2n1 (stereo not shown) [Example 139, [2-(2,3-Difluoro-phenyl)-piperazin-1-yl]-[6-(4-hydroxy-2-methyl-phenyl)-3-methyl-1H-pyrazolo[3,4-b]pyridin-4-yl]-methanone] | 99 |
| COc1ccc(C2CNCCN2C(=O)c2cc(-c3ccc(O)cc3C)nc3[nH]nc(C)c23)cc1 (stereo not shown) [Example 140, [6-(4-Hydroxy-2-methyl-phenyl)-3-methyl-1H-pyrazolo[3,4-b]pyridin-4-yl]-[2-(4-methoxy-phenyl)-piperazin-1-yl]-methanone] | 98 |
| Cc1cc(O)ccc1-c1cc(C(=O)N2CCNC[C@@H]2c2cccc(F)c2)c2c(C)n[nH]c2n1 [Example 141, [(S)-2-(3-Fluoro-phenyl)-piperazin-1-yl]-[6-(4-hydroxy-2-methyl-phenyl)-3-methyl-1H-pyrazolo[3,4-b]pyridin-4-yl]-methanone] | 98 |
| Cc1cc(O)ccc1-c1cc(C(=O)N2CCNCC2(C)C)c2c(C)n[nH]c2n1 [Example 142, (2,2-Dimethyl-piperazin-1-yl)-[6-(4-hydroxy-2-methyl-phenyl)-3-methyl-1H-pyrazolo[3,4-b]pyridin-4-yl]-methanone] | 98 |
| CCc1n[nH]c2nc(-c3ccc(O)cc3)cc(C(=O)NC3CN4CCC3CC4)c12 (stereo not shown) [Example 159, 3-Ethyl-6-(4-hydroxy-phenyl)-1H-pyrazolo[3,4-b]pyridine-4-carboxylic acid (1-aza-bicyclo[2.2.2]oct-3-yl)-amide] | 55 |

Other lines, results leading:

| inhibition at 1.14 µM [%] | Compound |
| --- | --- |
| 84 | CO[C@H]1CNC[C@@H]1NC(=O)c1cc(-c2ccc(O)cc2C)nc2[nH]nc(C)c12 [Example 143, 6-(4-Hydroxy-2-methyl-phenyl)-3-methyl-1H-pyrazolo[3,4-b]pyridine-4-carboxylic acid ((3S,4S)-4-methoxy-pyrrolidin-3-yl)-amide] |
| 82 | Cc1cc(O)ccc1-c1cc(C(=O)N2CCNCC2C(F)(F)F)c2c(C)n[nH]c2n1 (stereo not shown) [Example 144, [6-(4-Hydroxy-2-methyl-phenyl)-3-methyl-1H-pyrazolo[3,4-b]pyridin-4-yl]-(2-trifluoromethyl-piperazin-1-yl)-methanone] |
| 92 | Cc1cc(O)ccc1-c1cc(C(=O)N2CCN[C@@H](C)C2)c2c(C)n[nH]c2n1 [Example 145, [6-(4-Hydroxy-2-methyl-phenyl)-3-methyl-1H-pyrazolo[3,4-b]pyridin-4-yl]-((S)-3-methyl-piperazin-1-yl)-methanone] |
| 97 | COc1cccc(C2CNCCN2C(=O)c2cc(-c3ccc(O)cc3C)nc3[nH]nc(C)c23)c1 (stereo not shown) [Example 146, [6-(4-Hydroxy-2-methyl-phenyl)-3-methyl-1H-pyrazolo[3,4-b]pyridin-4-yl]-[2-(3-methoxy-phenyl)-piperazin-1-yl]-methanone] |
| 96 | Cc1cc(O)ccc1-c1cc(C(=O)N2CCNCC2c2cccc(F)c2)c2c(C)n[nH]c2n1 (stereo not shown) [Example 147, [2-(3-Fluoro-phenyl)-piperazin-1-yl]-[6-(4-hydroxy-2-methyl-phenyl)-3-methyl-1H-pyrazolo[3,4-b]pyridin-4-yl]-methanone] |
| 85 | Cc1cc(O)ccc1-c1cc(C(=O)NCC2(N)CCCCCC2)c2c(C)n[nH]c2n1 [Example 148, 6-(4-Hydroxy-2-methyl-phenyl)-3-methyl-1H-pyrazolo[3,4-b]pyridine-4-carboxylic acid (1-amino-cycloheptylmethyl)-amide] |
| 86 | CCC1(NC(=O)c2cc(-c3ccc(O)cc3C)nc3[nH]nc(C)c23)CCCNC1 (stereo not shown) [Example 149, 6-(4-Hydroxy-2-methyl-phenyl)-3-methyl-1H-pyrazolo[3,4-b]pyridine-4-carboxylic acid (3-ethyl-piperidin-3-yl)-amide] |
| 100 | Cc1cc(O)ccc1-c1cc(C(=O)N2CCNC[C@H]2c2ccccc2)c2c(C)n[nH]c2n1 [Example 150, [6-(4-Hydroxy-2-methyl-phenyl)-3-methyl-1H-pyrazolo[3,4-b]pyridin-4-yl]-((R)-2-phenyl-piperazin-1-yl)-methanone] |
| 96 | Cc1cc(O)ccc1-c1cc(C(=O)N2CCNCC2c2ccccc2F)c2c(C)n[nH]c2n1 (stereo not shown) [Example 151, [2-(2-Fluoro-phenyl)-piperazin-1-yl]-[6-(4-hydroxy-2-methyl-phenyl)-3-methyl-1H-pyrazolo[3,4-b]pyridin-4-yl]-methanone] |
| 94 | Cc1cc(O)ccc1-c1cc(C(=O)N2CCNCC2c2ccc(F)cc2F)c2c(C)n[nH]c2n1 (stereo not shown) [Example 152, [2-(2,4-Difluoro-phenyl)-piperazin-1-yl]-[6-(4-hydroxy-2-methyl-phenyl)-3-methyl-1H-pyrazolo[3,4-b]pyridin-4-yl]-methanone] |
| 89 | Cc1cc(O)ccc1-c1cc(C(=O)N2CCNCC2c2ccccc2Cl)c2c(C)n[nH]c2n1 (stereo not shown) [Example 153, [2-(2-Chloro-phenyl)-piperazin-1-yl]-[6-(4-hydroxy-2-methyl-phenyl)-3-methyl-1H-pyrazolo[3,4-b]pyridin-4-yl]-methanone] |
| 94 | Cc1cc(O)ccc1-c1cc(C(=O)N2CCNCC2c2ccc(C(F)(F)F)cc2)c2c(C)n[nH]c2n1 (stereo not shown) [Example 154, [6-(4-Hydroxy-2-methyl-phenyl)-3-methyl-1H-pyrazolo[3,4-b]pyridin-4-yl]-[2-(4-trifluoromethyl-phenyl)-piperazin-1-yl]-methanone] |
| 88 | Cc1cc(O)ccc1-c1cc(C(=O)N2CC(C)(C)NCC2(C)C)c2c(C)n[nH]c2n1 [Example 155, [6-(4-Hydroxy-2-methyl-phenyl)-3-methyl-1H-pyrazolo[3,4-b]pyridin-4-yl]-(2,2,5,5-tetramethyl-piperazin-1-yl)-methanone] |
| 26 | Cc1cc(O)cc(C)c1-c1cc(C(=O)N2CCNCC2(C)C)c2c(C)n[nH]c2n1 [Example 156, (2,2-Dimethyl-piperazin-1-yl)-[6-(4-hydroxy-2,6-dimethyl-phenyl)-3-methyl-1H-pyrazolo[3,4-b]pyridin-4-yl]-methanone] |
| 91 | CC1(C)CNCCN1C(=O)c1cc(-c2ccc(O)cc2)nc2[nH]nc(C3CC3)c12 [Example 157, [3-Cyclopropyl-6-(4-hydroxy-phenyl)-1H-pyrazolo[3,4-b]pyridin-4-yl]-(2,2-dimethyl-piperazin-1-yl)-methanone] |
| 78 | O=C(c1cc(-c2ccc(O)cc2)nc2[nH]nc(C3CC3)c12)N1CCNC[C@H]1c1ccccc1 [Example 158, [3-Cyclopropyl-6-(4-hydroxy-phenyl)-1H-pyrazolo[3,4-b]pyridin-4-yl]-((R)-2-phenyl-piperazin-1-yl)-methanone] |
